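Five concentrations, 48 hours, 96-well plates. TGI: concentration producing complete growth inhibition.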
Assays:
Test in all cases: NCI anticancer screen, dose series, 48 h
[1] = test system: PC-3 prostate
[2] = test system: LOX IMVI melanoma
[3] = test system: SF-268 CNS
[4] = test system: HOP-92 NSCLC
[5] = test system: CCRF-CEM leukemia
[6] = test system: NCI-H460 lung
[7] = test system: NCI-H23 lung
[8] = test system: NCI/ADR-RES ovarian
[9] = test system: MDA-MB-435
[10] = test system: UACC-62 melanoma
[11] = test system: MDA-MB-231 breast
[12] = test system: SK-MEL-28 melanoma
[13] = test system: MALME-3M melanoma
[14] = test system: UO-31 renal
[15] = test system: MDA-N
[16] = test system: 786-0 renal
[17] = test system: TK-10 renal
[18] = test system: SN12C renal
[19] = test system: A549 NSCLC
[20] = test system: A498 renal

SMILES | TGI [1] [µM] | TGI [2] [µM] | TGI [3] [µM] | TGI [4] [µM] | TGI [5] [µM] | TGI [6] [µM] | TGI [7] [µM] | TGI [8] [µM] | TGI [9] [µM] | TGI [10] [µM] | TGI [11] [µM] | TGI [12] [µM] | TGI [13] [µM] | TGI [14] [µM] | TGI [15] [µM] | TGI [16] [µM] | TGI [17] [µM] | TGI [18] [µM] | TGI [19] [µM] | TGI [20] [µM]
Cc1ccc(SCC(OCn2cnc3c(Cl)nc(N)nc32)[C@H](C)F)cc1 (stereo partly specified) | > 100 | > 100 | > 100 | > 100 | > 100 | > 100 | > 100 | > 100 | > 100 | > 100 | > 100 | > 100 | > 100 | > 100 | > 100 | > 100 | > 100 | > 100 | > 100 | –
O=C1/C(=C/c2ccccc2)CCCc2ccccc21 | 35.1 | 34.9 | 32.6 | 32.9 | 43.6 | 31.4 | 34.2 | 40.5 | 38.9 | 28.6 | 39.1 | 32.6 | 42 | 31.9 | 36.7 | 31.3 | 37.5 | 33.8 | 67.1 | –
Cc1cc(N(CCC#N)CCC#N)ccc1/C(N=Nc1ccc([N+](=O)[O-])cc1)=N\NC(=O)c1ccccc1 | > 100 | – | > 100 | – | > 100 | > 100 | > 100 | > 100 | > 100 | > 100 | > 100 | – | > 100 | > 100 | > 100 | > 100 | > 100 | > 100 | > 100 | 74
O=C(NC1(C(=O)O)CCCC1)c1ccccc1 | > 100 | > 100 | > 100 | > 100 | > 100 | > 100 | > 100 | > 100 | > 100 | > 100 | > 100 | > 100 | – | > 100 | > 100 | > 100 | > 100 | > 100 | > 100 | > 100
CC1(C)OC2OC(COC(=O)c3ccc(C#N)cc3)C3OC(C)(C)OC3C2O1 (stereo unspecified) | > 75 | > 75 | > 75 | – | > 75 | – | > 75 | > 75 | > 75 | > 75 | > 75 | > 75 | > 75 | > 75 | > 75 | > 75 | > 75 | > 75 | > 75 | > 75
CCN(CC)CCN1C(=O)C(=O)N(c2cccc3ccccc23)C1=O | > 10 | > 10 | > 10 | – | > 10 | > 10 | > 10 | > 10 | > 10 | > 10 | > 10 | > 10 | > 10 | > 10 | > 10 | – | > 10 | > 10 | > 10 | > 10
CC(=O)n1nc(-c2ccc3ccccc3c2)nc1C | > 100 | > 100 | > 100 | – | > 100 | > 100 | – | > 100 | > 100 | > 100 | > 100 | – | > 100 | > 100 | > 100 | > 100 | > 100 | > 100 | > 100 | –

From PubChem BioAssay (NCI)
